Assay results: patent publication US20240109924A1, “IP4-4,6 SUBSTITUTED DERIVATIVE COMPOUNDS” (SANIFIT THERAPEUTICS, S.A., priority 2021, published 2024)

Assays:
tissue calcification = test: In vivo tissue calcification (calcium content by ICP-OES) in vitamin D3-induced limb ischemia rat model; settings: SD rats, vitamin D3 150,000 IU/kg s.c. D1-D3, 30 mg/kg s.c. daily D1-D5, sacrifice D5; for Inhibition of calcification (%) Femoral: femoral arteries; for Inhibition of calcification (%) Kidney: right kidney
Protocol: (§1) The effects of compounds 1, 6, 9, 14, 18, 31, and 39 over blood perfusion and tissue calcification after the inception of limb ischemia were tested using a rat model for a duration of 5 days. Limb ischemia was induced to all groups from D1 to D3 excepting the sham group, to which no ischemia was induced. The animals were administered placebo and active agent formulations from D1 to D5. Observations were taken at several points during the treatment from D0 to D5. All animals were weighed every day before treatment. Seventy-two male Sprague Dawley (SD) rats (Envigo Corp., Huntingdon, GB) weighing approximately 150-200 g were used. The rats were fed with a […]® Rod14-H diet ([…] GmbH, Soest, DE). The rats were divided in 9 groups, 8 animals per group, as follows: • Group 1-Control (Sham) • Group 2-Physiological saline solution • Group 3-Compound 1 • Group 4-Compound 6 • Group 5-Compound 9 • Group 6-Compound 14 • Group 7-Compound 18 • Group 8-Compound 31 • Group 9-Compound 39 Limb ischemia was induced in the rats of groups 2-9 by subcutaneous administration of 150,000 IU/kg vitamin D3 (cholecalciferol, Duphafral D3 1000; Zoetis Inc., Parsippany, NJ, US) in physiological saline solution (2 mL/kg) every day during D1 to D3. The rats of group 1 were not administered vitamin D3. The rats in groups 1 and 2 were administered 2 mL/kg of physiological saline solution daily from D1 to D5 via subcutaneous route. The animals in groups 3-9 were administered subcutaneously 30 mg/kg of compounds 1, 6, 9, 14, 18, 31, and 39, respectively, in physiological saline solution (2 mL/kg), every day from D1 to D5. All rats of groups 1-9 were sacrificed on D5 30 minutes after dosing for determining their Ca baseline values. The animals were anesthetized by isoflurane inhalation. The whole aorta, carotids, femoral arteries, heart, and right kidney of the subjects were collected for calcium content measurement. The tissues were lyophilized for 48-72 h and weighed. The lyophilized tissues were then digested using a 1:1 HNO3:HClO4 mixture in a dry bath incubator for 2-4 h at 180° C. The digested tissues were subsequently diluted using ultra-pure MilliQ® water (MilliporeSigma (Merck KGaA), Burlington, MA, US) to a final volume of 5 mL (i.e., for femoral arteries and carotids) of 10 mL (i.e., for heart, kidneys, and aorta). Calcium content was quantified via inductively coupled plasma optical emission spectrometry (ICP-OES) using an Optima 7300 DV ICP-OES System spectrometer (PerkinElmer, Inc., Waltham, MA, US) according to the manufacturer's instructions. Average blood perfusion recovery compared to vehicle and sham were also calculated. Recovery for sham was 100%. Blood perfusion recovery calculated was using the following equation: 100-((BP sham-BP new drug)/(BP sham-BP vehicle)*100).

blood perfusion = test: In vivo blood perfusion (laser doppler perfusion imaging) in vitamin D3-induced limb ischemia rat model; settings: average blood perfusion recovery vs vehicle and sham (sham 100%), SD rats, 30 mg/kg s.c. daily D1-D5
Protocol: as §1, with “to D5. Limb functional and ischemia status were evaluated by using a laser doppler perfusion imaging apparatus PeriCam PSI Normal Resolution (Perimed AB, Järfälla, SE) in all groups at D0 and D5. The perfusion difference and perfusion ratio were calculated by comparing the baseline and either D0 or D5 readings for each group. In addition, the blood perfusion ratio of each treatment group (i.e., groups 2 to 9) to sham group was also calculated. All rats” for “to D5. All rats”

[1] = In vitro inhibition of calcium phosphate crystallization in human plasma (spectrophotometric assay); type: biochemical; settings: 0-100 μM, 1.5 mM phosphate, 12.5 mM calcium, pH 7.4, absorbance 550 nm, slope 6-24 min, read-out: Relative Potency
Outline: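 Human plasma spiked with compound (0-100 μM), centrifuged, then brought to final 1.5 mM phosphate and 12.5 mM calcium, pH 7.4. Absorbance at 550 nm read every 3 min for 30 min at rt; inhibition from slopes (6-24 min, absorbance vs log time) relative to blank plasma.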

Row | SMILES | Inhibition of calcification (%) Aorta (tissue calcification) | Inhibition of calcification (%) Carotid (tissue calcification) | Inhibition of calcification (%) Femoral (tissue calcification) | Inhibition of calcification (%) Heart (tissue calcification) | Inhibition of calcification (%) Kidney (tissue calcification) | BP recovery (%) (blood perfusion) | EC50 [1] [µM]
1 | O=C([O-])CCCCCO[C@@H]1[C@@H](OP(=O)([O-])[O-])[C@H](OCCCCCC(=O)[O-])[C@@H](OP(=O)([O-])[O-])[C@@H](OP(=O)([O-])[O-])[C@H]1OP(=O)([O-])[O-].[Na+].[Na+].[Na+].[Na+].[Na+].[Na+].[Na+].[Na+].[Na+].[Na+] [Compound 18, 4,6-O-bis(5-carboxypentyl)-myo-inositol-1,2,3,5-tetrakis(phosphate) decasodium salt] | Under (Average inhibition percentage over or under 25% inhibition of calcification.) | Under (Average inhibition percentage over or under 25% inhibition of calcification.) | Under (Average inhibition percentage over or under 25% inhibition of calcification.) | Over (Average inhibition percentage over or under 25% inhibition of calcification.) | Over (Average inhibition percentage over or under 25% inhibition of calcification.) | Over (Average blood perfusion recovery over or under 25%.) | ≤ 5
2 | O=C([O-])CCn1cc(CO[C@@H]2[C@@H](OP(=O)([O-])[O-])[C@H](OCc3cn(CCC(=O)[O-])nn3)[C@@H](OP(=O)([O-])[O-])[C@@H](OP(=O)([O-])[O-])[C@H]2OP(=O)([O-])[O-])nn1.[Na+].[Na+].[Na+].[Na+].[Na+].[Na+].[Na+].[Na+].[Na+].[Na+] [Compound 31, 4,6-O-bis((1-(2-carboxyethyl)-1H-1,2,3-triazol-4-yl)methyl)-myo-inositol-1,2,3,5-tetrakis(phosphate) decasodium salt] | Over (Average inhibition percentage over or under 25% inhibition of calcification.) | Under (Average inhibition percentage over or under 25% inhibition of calcification.) | Over (Average inhibition percentage over or under 25% inhibition of calcification.) | Over (Average inhibition percentage over or under 25% inhibition of calcification.) | Over (Average inhibition percentage over or under 25% inhibition of calcification.) | Over (Average blood perfusion recovery over or under 25%.) | ≤ 5
3 | COCc1cn(CCCCCCO[C@@H]2[C@@H](OP(=O)([O-])[O-])[C@H](OCCCCCCn3cc(COC)nn3)[C@@H](OP(=O)([O-])[O-])[C@@H](OP(=O)([O-])[O-])[C@H]2OP(=O)([O-])[O-])nn1.[Na+].[Na+].[Na+].[Na+].[Na+].[Na+].[Na+].[Na+] [Compound 39, 4,6-O-bis(6-(4-(methoxymethyl)-1H-1,2,3-triazol-1-yl)hexyl)-myo-inositol-1,2,3,5-tetrakis(phosphate) octasodium salt] | Over (Average inhibition percentage over or under 25% inhibition of calcification.) | Under (Average inhibition percentage over or under 25% inhibition of calcification.) | Over (Average inhibition percentage over or under 25% inhibition of calcification.) | Over (Average inhibition percentage over or under 25% inhibition of calcification.) | Over (Average inhibition percentage over or under 25% inhibition of calcification.) | Over (Average blood perfusion recovery over or under 25%.) | ≤ 5
